Assay type in all cases: cell-based, human
The subject of assay [1] is IL-6, IL-8, IL-1β, GM-CSF, MDC, MIP-1α, MIP-1β and TNF-α. The assay can be described thus: LPS-induced secretion of proinflammatory cytokines from PBMCs (whole multiplex panel, result in words). To be noted: pre-treatment 1 hour, 1 ng/ml LPS 18 hours. On the procedure: Peripheral blood mononuclear cells (PBMCs) from healthy volunteers were seeded at a concentration of 2×10^6 cells/ml and treated with the indicated concentrations of IMiD compounds or control DMSO (0.25%) for 1 hour, before stimulation with 1 ng/ml LPS. After 18 hours, proinflammatory cytokine levels in the supernatant were assessed by multiplex cytokine analysis.
(§1) Peripheral blood mononuclear cells (PBMCs) were isolated from the blood of healthy human donors by Ficoll cell separation. The PBMCs were seeded at a concentration of 2×10^6 cells/ml and treated for 1 hour at 37° C. with various concentrations of IMiD compounds or control DMSO (0.25%), before stimulation with 1 ng/ml LPS for 18 hours at 37° C.
(§2) Supernatant samples were subjected to multiplex cytokine analysis (Luminex IS100 instrument) to quantify secreted levels of IL-6, IL-8, IL1-beta (IL-1β), GM-CSF, MDC, MIP-1alpha (MIP-1α), MIP-1beta (MIP-1β) and TNF-alpha (TNF-α) (see e.g. FIGS. 7A-C).

The test system of the next assay is IL-6. The assay can be described thus: LPS-stimulated PBMC cytokine production, multiplex cytokine analysis: IL-6. To be noted: PBMC 2×10^6 cells/ml, compound 1 hour, then 1 ng/ml LPS 18 hours. The procedure:
(§3) Peripheral blood mononuclear cells (PBMCs) were isolated from the blood of healthy human donors by Ficoll cell separation. […] Supernatant samples were subjected to multiplex cytokine analysis (Luminex IS100 instrument) to quantify secreted levels of IL-6, IL-8, IL1-beta (IL-1β), GM-CSF, MDC, MIP-1alpha (MIP-1α), MIP-1beta (MIP-1β) and TNF-alpha (TNF-α) (see e.g. FIGS. 7A-C). IC50 (half maximal inhibitory concentration) values were calculated to measure the potency of each IMiD compound in inhibiting LPS-stimulated secretion of each cytokine (see Table 25).

In a further assay the test system is MDC. Nature of the assay: LPS-stimulated PBMC cytokine production, multiplex cytokine analysis: MDC. To be noted: PBMC 2×10^6 cells/ml, compound 1 hour, then 1 ng/ml LPS 18 hours. On the procedure: as §3
The test system of another assay is GM-CSF. The assay can be described thus: LPS-stimulated PBMC cytokine production, multiplex cytokine analysis: GM-CSF. To be noted: PBMC 2×10^6 cells/ml, compound 1 hour, then 1 ng/ml LPS 18 hours. The procedure: as §3
A further assay relates to IL-1β. Nature of the assay: LPS-stimulated PBMC cytokine production, multiplex cytokine analysis: IL-1β. To be noted: PBMC 2×10^6 cells/ml, compound 1 hour, then 1 ng/ml LPS 18 hours. The procedure: as §3
A further assay has as its system TNF-α. Nature of the assay: LPS-stimulated PBMC cytokine production, multiplex cytokine analysis: TNF-α. The note with it: PBMC 2×10^6 cells/ml, compound 1 hour, then 1 ng/ml LPS 18 hours. The procedure:
as §1, §2
(§4) IC50 (half maximal inhibitory concentration) values were calculated to measure the potency of each IMiD compound in inhibiting LPS-stimulated secretion of each cytokine (see Table 25).

A further assay concerns MIP-1α. The assay can be described thus: LPS-stimulated PBMC cytokine production, multiplex cytokine analysis: MIP-1α. The note with it: PBMC 2×10^6 cells/ml, compound 1 hour, then 1 ng/ml LPS 18 hours. The procedure: as §1, §2, §4
The subject of another assay is IL-8. The assay can be described thus: LPS-stimulated PBMC cytokine production, multiplex cytokine analysis: IL-8. The note with it: PBMC 2×10^6 cells/ml, compound 1 hour, then 1 ng/ml LPS 18 hours. The procedure: as §1, §2, §4
The subject of another assay is MIP-1β. The assay can be described thus: LPS-stimulated PBMC cytokine production, multiplex cytokine analysis: MIP-1β. To be noted: PBMC 2×10^6 cells/ml, compound 1 hour, then 1 ng/ml LPS 18 hours. On the procedure:
as §3

The structures appear in SMILES notation. Bounds are passed on as bounds.

In general, IC50 refers to the point on the concentration scale where inhibition reaches its midpoint. Lower therefore signals greater potency in that assay.

Turning to `O=C1CCC(N2Cc3c(OCc4ccc(CN5CCOCC5)cc4)cccc3C2=O)C(=O)N1` (single isomer, unassigned) [Compound A], the “LPS-induced secretion of proinflammatory cytokines from PBMCs (effect in words)” value (“LPS-induced secretion” below) in [1] is listed as “inhibited”. Moreover, the half-inhibitory concentration (IC50) in the assay on IL-6 came out at 0.01 µM; with MDC it was 0.0026 µM; in the assay on GM-CSF, 0.0092 µM; in the assay with IL-1β, 0.00085 µM; in the assay on TNF-α it was 0.0018 µM; in the assay with MIP-1α, 0.19 µM. For the same molecule, the IC50 in the assay with IL-8 (Homo sapiens) and in the assay with MIP-1β (Homo sapiens) was > 10 µM in each case.

`O=C1CCC(N2Cc3c(OCc4ccc(CN5CCOCC5)cc4)cccc3C2=O)C(=O)N1` (single isomer, unassigned) [Compound B]: the “LPS-induced secretion” value in assay [1] is listed as “inhibited”. The IC50 is 0.083 µM with IL-6; 0.012 µM with MDC; 0.039 µM in the assay with GM-CSF; 0.0062 µM in the assay on IL-1β; 0.0095 µM with TNF-α; 0.45 µM with MIP-1α. Besides, the IC50 in the assay on IL-8 and in the assay on MIP-1β was > 10 µM in each case.

As for `Cc1nc2cccc(N)c2c(=O)n1C1CCC(=O)NC1=O` (stereo not shown) [Avadomide, 3-(5-amino-2-methyl-4-oxo-3,4-dihydroquinazolin-3-yl)piperidine-2,6-dione], in [1], the “LPS-induced secretion” value is given as “inhibited”. For the same molecule, the IC50 in the assay on IL-6 (Homo sapiens) was 0.06 µM; in the assay on IL-1β (Homo sapiens) it was 0.054 µM; in the assay with TNF-α (Homo sapiens) it was 0.034 µM; in the assay on MIP-1α (Homo sapiens, PBMC) it was 0.3 µM; in the assay on IL-8 (Homo sapiens), > 10 µM; in the assay with MIP-1β (Homo sapiens), > 10 µM.

As for `O=C1CCC(N2C(=O)c3ccccc3C2=O)C(=O)N1` (stereo not shown) [Thalidomide, 2-(2,6-dioxopiperidin-3-yl)-2,3 dihydro-1H-isoindole-1,3-dione], in [1], the “LPS-induced secretion” value is on record as “minimal to no effect”. Further, the IC50 with IL-6 (Homo sapiens, PBMC) was > 10 µM; in the assay on MDC (Homo sapiens, PBMC), > 10 µM; in the assay with GM-CSF (Homo sapiens, PBMC), > 10 µM; in the assay with IL-1β (Homo sapiens, PBMC) it was > 10 µM; in the assay with TNF-α (Homo sapiens, PBMC), > 10 µM; with MIP-1α (Homo sapiens, PBMC), > 10 µM. For the same molecule, the IC50 in the assay on IL-8 (Homo sapiens) and in the assay on MIP-1β (Homo sapiens) was > 10 µM throughout.

For the origin of these results see patent US20230172923A1, “METHODS OF TREATING CYTOKINE-RELATED ADVERSE EVENTS” (BRISTOL-MYERS SQUIBB COMPANY, priority 2020, published 2023).
